# pKi: −log10 of the molar value.
# Legend:
# [1] = target: D(3) dopamine receptor (Homo sapiens, UniProt P35462); experiment: biochemical; format: cell-based, CHO
# Description: Binding affinity towards human Dopamine receptor D3 by displacement of [125I]iodosulpiride expressed in CHO cells
# [2] = target: D(2) dopamine receptor (Homo sapiens, UniProt P14416); experiment: biochemical; format: cell-based, CHO
# Sequence of D(2) dopamine receptor (P14416 whole entry): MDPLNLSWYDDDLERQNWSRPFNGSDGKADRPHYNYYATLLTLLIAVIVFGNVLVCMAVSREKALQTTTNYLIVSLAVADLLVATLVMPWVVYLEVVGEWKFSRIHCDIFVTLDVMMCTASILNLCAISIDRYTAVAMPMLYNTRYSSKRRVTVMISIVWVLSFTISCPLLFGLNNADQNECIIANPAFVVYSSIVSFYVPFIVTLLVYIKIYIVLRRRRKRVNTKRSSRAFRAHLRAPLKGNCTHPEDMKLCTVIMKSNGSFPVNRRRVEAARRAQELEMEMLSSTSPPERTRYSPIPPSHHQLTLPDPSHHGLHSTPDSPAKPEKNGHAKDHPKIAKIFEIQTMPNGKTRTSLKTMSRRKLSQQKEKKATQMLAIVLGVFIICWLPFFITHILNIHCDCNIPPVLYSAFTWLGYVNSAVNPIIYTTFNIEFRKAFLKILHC
# Description: Binding affinity towards human Dopamine receptor D2 by displacement of [125I]iodosulpiride expressed in CHO cells
# Sequence of D(3) dopamine receptor (P35462 whole entry): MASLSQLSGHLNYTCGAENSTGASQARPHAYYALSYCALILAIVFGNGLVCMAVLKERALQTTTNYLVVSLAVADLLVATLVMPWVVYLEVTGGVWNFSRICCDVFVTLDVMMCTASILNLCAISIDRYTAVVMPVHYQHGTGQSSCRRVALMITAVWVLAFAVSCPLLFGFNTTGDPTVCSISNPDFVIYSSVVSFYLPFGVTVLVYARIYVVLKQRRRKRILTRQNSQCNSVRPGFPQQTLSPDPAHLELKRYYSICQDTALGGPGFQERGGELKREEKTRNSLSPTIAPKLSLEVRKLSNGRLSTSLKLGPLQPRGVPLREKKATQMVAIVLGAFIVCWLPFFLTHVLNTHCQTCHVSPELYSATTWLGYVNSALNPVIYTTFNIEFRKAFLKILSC
SMILES,pKi [1],pKi [2]
COc1cccc(/C=C/C(=O)N[C@H]2CC[C@H](CCN3CCc4ccc(C#N)cc4CC3)CC2)c1,8.50,6.20
N#Cc1ccc2c(c1)CCN(CC[C@H]1CC[C@H](NC(=O)c3ccnc4ccccc34)CC1)CC2,7.60,5.90
CC(=O)c1cccc(/C=C/C(=O)N[C@H]2CC[C@H](CCN3CCc4ccc(C#N)cc4CC3)CC2)c1,8.40,6.70
N#Cc1ccc2c(c1)CCN(CC[C@H]1CC[C@H](NC(=O)c3ccc4ccccc4c3)CC1)CC2,7.70,5.50
N#Cc1ccc2c(c1)CCN(CC[C@H]1CC[C@H](NC(=O)/C=C/c3cccc(F)c3)CC1)CC2,8.20,6.40
N#Cc1ccc2c(c1)CCN(CC[C@H]1CC[C@H](NC(=O)c3cccc4ccccc34)CC1)CC2,7.70,5.90
CC(=O)Nc1cccc(/C=C/C(=O)N[C@H]2CC[C@H](CCN3CCc4ccc(C#N)cc4CC3)CC2)c1,8.50,6.30
N#Cc1ccc2c(c1)CCN(CC[C@H]1CC[C@H](NC(=O)/C=C/c3ccccc3F)CC1)CC2,8.00,6.20
N#Cc1ccc2c(c1)CCN(CC[C@H]1CC[C@H](NC(=O)c3cc4ccccc4[nH]3)CC1)CC2,7.80,6.50

# Now from value to compound:
pKi [1],pKi [2],SMILES
8.40,6.30,CC(=O)Nc1cccc(/C=C/C(=O)N[C@H]2CC[C@H](CCN3CCc4ccc(C#N)cc4CC3)CC2)c1F
8.20,6.40,N#Cc1ccc2c(c1)CCN(CC[C@H]1CC[C@H](NC(=O)/C=C/c3ccc(F)cc3)CC1)CC2
7.90,5.70,N#Cc1ccc2c(c1)CCN(CC[C@H]1CC[C@H](NC(=O)c3cccc4ncccc34)CC1)CC2
8.00,6.30,N#Cc1ccc2c(c1)CCN(CC[C@H]1CC[C@H](NC(=O)c3ccc4ccc(O)nc4c3)CC1)CC2
8.20,6.10,N#Cc1ccc2c(c1)CCN(CC[C@H]1CC[C@H](NC(=O)c3ccc4c(c3)NC(=O)CO4)CC1)CC2
